Results: PMC7942396, “Drug Repurposing Screen for Compounds Inhibiting the Cytopathic Effect of SARS-CoV-2” (Frontiers in Pharmacology, 2021)
Where a name gives a salt, the structure may show the parent alone. Read-outs that look alike come from different tables or passages of the source. Where a SMILES comes first, the peptide text is derived from it. [ ]: non-standard residue; d: D form. Nle = CCCC[C@H](N)C(=O)O

Assays:
[1] = system: SARS-CoV-2 (USA_WA1/2020); assay: microbe, parasite or virus in culture; type: cell-based; conditions: for EC50: read-out: CPE EC50
[2] = SARS-CoV-2 CPE assay, Vero E6 cells, confirmed anti-SARS-CoV-2 compounds
[3] = SARS-CoV-2 CPE assay, Vero E6 cells, efficacy
[4] = cytotoxicity counter-assay, Vero E6 cells without virus
[5] = SARS-CoV-2 CPE assay, Vero E6 cells
[6] = read-out: Cytotox CC50, cytotoxicity counter-assay, Vero E6 cells without virus
[7] = […], DMSO 0%, no-virus control 100%, hit confirmation
[8] = Vero E6 cells without virus, 72 h

| SMILES | EC50 [1, 2] | CPE % Efficacy [1, 3] | % Cytotox (Vero E6 cells; [4]) | CC50 (Vero E6 cells; [6]) | other results |
| --- | --- | --- | --- | --- | --- |
| Cn1ncc2cc(-c3cnc(N)c(Cl)c3N3CCC4(CCNC4=O)CC3)ccc21 [CCT-251921] | 2.82 µM | 87.9% | 39.8% |  |  |
| Cc1c(CCOc2ccc(C(=O)O)cc2)c2cc(Cl)ccc2n1C(c1ccccc1)c1ccccc1 [CDIBA] |  |  | 77.1% | 12.6 µM | CPE % Efficacy [1, 5]: 52.2%; EC50 [1, 5]: 14.1 µM |
| OCCCNc1cc(-c2ccnc(Nc3cccc(Cl)c3)n2)ccn1 [CGP-60474] |  |  |  |  | CPE % Efficacy [1]: 104.5%; EC50 [1]: 6.31 µM; % Cytotox (Vero E6 cells): 61.3%; CC50 (Vero E6 cells): 0.11 µM |
| Cc1ccc(-c2c(C(=O)CCl)n(CCCO)c3ncnc(N)c23)cc1 [CMK] |  |  | 15.2% |  | CPE % Efficacy [1, 5]: 38.9%; EC50 [1, 5]: 12.6 µM |
| CCN(CC)Cc1cccc(/C=C/c2nc3ccc(F)cc3c(=O)n2-c2ccccc2Cl)n1.Cl [CP 465022 hydrochloride] | 10 µM | 77.3% | 47.9% | 12.6 µM |  |
| COc1cc2nc(-c3ccc(N4CCN(C)CC4)cc3)nc(NCCN3CCOCC3)c2cc1OC [CPG-52364] | 11.2 µM | 63.1% | 41.6% | 10 µM |  |
| Cc1nc(C)c(CN2CCN(C(c3ccc(F)cc3)c3ccc(F)cc3)CC2)nc1C [CXC-195] |  |  | 0.0% |  | CPE % Efficacy [1, 5]: 32.4%; EC50 [1, 5]: 12.6 µM |
| Cc1cc(CN)cc(C)c1NC(=O)c1ccc(-c2cc(Cl)ccc2Cl)o1 [CYM50358] | 4.47 µM | 34.9% | 52.7% |  |  |
| CCOc1ccc(-c2nc(-c3cccc4c3CCC4NCCO)no2)cc1OCC.Cl (centres unmarked) [CYM 5442 hydrochloride] | 11.2 µM | 134.3% | 0.0% |  |  |
| CN(C)S(=O)(=O)c1ccc(NC(=S)N2CCC(C(O)(c3ccccc3)c3ccccc3)CC2)cc1 [CYM 9484] | 11.2 µM | 30.8% | 13.8% | 19.9 µM |  |
| CCCC[C@@H](C=O)NC(=O)[C@H](CC(C)C)NC(=O)[C@H](CC(C)C)NC(C)=O [Calpain Inhibitor I, ALLN, reference compound] (Ac-Leu-Leu-[Nle]-aldehyde) | 0.0226 µM | 72.0% | 115.5% | 1.13 µM | CPE % Efficacy [1, 7]: 111.1%; EC50 [1]: 2 µM; % Cytotox (Vero E6 cells; [8]): <30% |
| COc1ccccc1OCCNCC(O)COc1cccc2[nH]c3ccccc3c12.O=C(O)C(O)C(O)C(=O)O (centres unmarked) [Carvedilol tartrate] | 11.2 µM | 101.1% | 12.7% | 11.2 µM |  |
| Cn1nc(C(C)(C)C)cc1C(=O)N[C@@H](Cc1cccc(Cl)c1)C(=O)NCC#N [Cathepsin Inhibitor 1, reference compound] |  |  |  |  | CPE % Efficacy [1, 7]: 114.4%; EC50 [1]: 0.25 µM; % Cytotox (Vero E6 cells; [8]): <30% |
| CCN(CC)CCCS(=O)(=O)N[C@H](CCc1ccccc1)c1nc(Cc2ccc(Br)cc2)no1 [CpdD hydrochloride, reference compound] |  |  |  |  | CPE % Efficacy [1, 7]: 96.9%; EC50 [1]: 10 µM; % Cytotox (Vero E6 cells; [8]): <30% |
| O=C(O)c1ccc(CCCc2ccc(OCCc3ccc(F)cc3)cc2)o1 [D-942] | 0.14 µM | 120.3% | 53.7% | 11.2 µM |  |
| O=C1NC(=O)c2cc(Nc3ccccc3)c(Nc3ccccc3)cc21 [DAPH] | 3.98 µM | 53.9% | 79.5% | 11.2 µM |  |
| NC(=O)c1ccccc1Nc1ccnc(Nc2cccc(O)c2)n1 [DB-07268] | 10 µM | 52.8% | 40.9% | 1 µM |  |
| Cl.Cl.Fc1ccc(-c2nc(C3CCNCC3)sc2-c2ccnc(NC3CC3)n2)cc1 [DBM 1285 dihydrochloride] |  |  | 61.3% | 11.2 µM | CPE % Efficacy [1, 5]: 56.1%; EC50 [1, 5]: 12.6 µM |
